Assay results reported in PubChem BioAssay (NCI).
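Cells were grown in 96-well plates and exposed to each compound for 48 hours at five concentrations; endpoints were interpolated linearly between bracketing concentrations, or set to the highest concentration if not reached. GI50 marks 50% less growth. TGI: concentration producing complete growth inhibition.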

Key:
Assay in all cases: NCI-60 cell line screen, 48 h
HCT-15 colon = system: HCT-15 colon
RPMI-8226 leukemia = system: RPMI-8226 leukemia
DU-145 prostate = system: DU-145 prostate
MCF7 breast = system: MCF7 breast
MDA-N = system: MDA-N
UACC-62 melanoma = system: UACC-62 melanoma
786-0 renal = system: 786-0 renal
A549 NSCLC = system: A549 NSCLC
NCI-H23 lung = system: NCI-H23 lung
HS 578T breast = system: HS 578T breast

SMILES	GI50 (HCT-15 colon) [µM]	TGI (HCT-15 colon) [µM]	GI50 (RPMI-8226 leukemia) [µM]	TGI (RPMI-8226 leukemia) [µM]	GI50 (DU-145 prostate) [µM]	TGI (DU-145 prostate) [µM]	GI50 (MCF7 breast) [µM]	TGI (MCF7 breast) [µM]	TGI (MDA-N) [µM]	TGI (UACC-62 melanoma) [µM]	TGI (786-0 renal) [µM]	TGI (A549 NSCLC) [µM]	TGI (NCI-H23 lung) [µM]	TGI (HS 578T breast) [µM]	GI50 (MDA-N) [µM]	GI50 (NCI-H23 lung) [µM]	GI50 (HS 578T breast) [µM]	GI50 (UACC-62 melanoma) [µM]	GI50 (A549 NSCLC) [µM]
CCN1CCN(Cc2ccc(NC(=O)Nc3ccc(-n4ccc5c(NC(=O)c6ccccc6)nccc54)cc3)cc2C(F)(F)F)CC1	0.227	1.81	0.942	> 100	1.12	2.34	0.756	2.08	–	–	–	–	–	–	–	–	–	–	–
N#C/C(=C\c1cccc(Br)c1)c1nc2ccccc2c(=O)[nH]1	–	> 100	–	> 100	–	> 100	–	> 100	> 100	> 100	> 100	> 100	–	–	–	–	–	–	–
NC(Cc1[nH]nc2ccccc12)C(=O)O (configuration not stated)	–	> 100	–	> 100	–	> 100	–	> 100	–	> 100	> 100	> 100	> 100	> 100	–	–	–	–	–
COCC#C[C@@]1(O)CCCCC1CC(OC)OC (some centres not stated)	–	> 100	–	94.5	–	> 100	–	> 100	> 100	> 100	> 100	> 100	> 100	> 100	–	–	–	–	–
Nc1c(S(N)(=O)=O)cc(S(N)(=O)=O)cc1S(N)(=O)=O	–	> 100	–	> 100	–	> 100	–	> 100	> 100	> 100	> 100	> 100	> 100	> 100	–	–	–	–	–
Cc1cc(S(=O)(=O)Nc2n[nH]c(Nc3ccccc3)n2)c(SCC(=O)O)cc1Cl	–	> 100	–	> 100	–	> 100	–	> 100	> 100	> 100	> 100	> 100	> 100	> 100	–	–	–	–	–
O=c1c(-c2ccccc2)c(SCCN2CCCCCC2)n(-c2ccccc2)c(=S)n1-c1ccccc1	–	> 100	–	> 100	–	66.1	–	> 100	–	> 100	–	–	> 100	> 100	–	–	–	–	–
CCOc1ccc(N=Nc2ccc3cc(/C(C)=N/NC(=O)/C(C#N)=C\c4ccc(N(CCC#N)CCC#N)cc4)c(=O)oc3c2)cc1	–	> 10	–	> 10	–	> 10	–	> 10	> 10	> 10	> 10	> 10	> 10	> 10	–	–	–	–	–
Cn1c2c(c3ccccc31)CCN1C(=O)C34CCCC3CC21S4 (configuration not stated)	–	> 100	–	> 100	–	> 100	–	> 100	> 100	> 100	> 100	> 100	> 100	> 100	–	–	–	–	–
O=C(OC12CC3CC(CC(C3)C1)C2)c1ccc(NCc2cc(O)ccc2O)cc1	–	2.29	–	0.401	–	16.7	–	8.54	6.56	3.28	2.86	16.5	3.8	4.41	–	–	–	–	–
CCC(=O)Nc1ccc(NS(=O)(=O)c2ccc(Cl)cc2)cc1	–	> 100	–	54.3	–	> 100	–	> 100	> 100	> 100	> 100	> 100	> 100	> 100	–	–	–	–	–
N#Cc1ccc(-c2nc(C#N)c(N)o2)cc1	–	> 10	–	> 10	–	> 10	–	> 10	> 10	> 10	> 10	> 10	> 10	> 10	–	–	–	–	–
N#Cc1nc(CCCN2C(=O)c3ccccc3C2=O)oc1N	–	> 100	–	> 100	–	> 100	–	> 100	> 100	–	> 100	> 100	> 100	> 100	–	–	–	–	–
CC(=O)OCC(=O)O[C@@H]1[C@H]2[C@@H](OC(=O)c3ccccc3)[C@@H](C)C[C@]2(O)[C@H](OC(C)=O)[C@@]2(C)C[C@]1(OC(C)=O)C[C@H]1C(=O)C(C)(C)[C@@H](OC(C)=O)[C@@H]12	–	> 25	–	> 25	–	> 25	–	> 25	> 25	> 25	> 25	> 25	> 25	> 25	–	–	–	–	–
C=C1C[C@@H]2CC[C@@]34C[C@H]5O[C@H]6[C@@H](O3)[C@H]3O[C@H](CC[C@@H]3O[C@H]6[C@H]5O4)CC(=O)C[C@@H]3[C@@H](OC)[C@@H](C[C@H](O)CN)O[C@H]3C[C@H]3O[C@@H](CC[C@@H]1O2)C[C@@H](C)C3=C	–	> 0.76	–	0.0344	–	0.0241	–	> 1	0.000354	> 1	> 1	> 1	0.173	> 0.187	0.0001	–	–	–	–
C=C(C)[C@H]1CC(=O)/C(C)=C\CC/C(C)=C/CC[C@@]2(C)O[C@@H]2C1	–	> 100	–	52.1	–	33.4	–	–	94.4	26.2	> 100	34.5	51.8	> 100	–	–	–	–	–
CCCCN1C(=O)CC2[C@@H]3CCc4cc(OC)ccc4C3CC[C@]2(C)C1=O (some centres not stated)	–	> 10	–	> 10	–	> 10	–	> 10	> 10	> 10	> 10	> 10	> 10	> 10	–	–	–	–	–
COc1cc2c3c(cc(Cl)nc3c1OC)C(=O)C(=O)N2	–	40.8	–	> 100	–	30.8	–	4.58	–	18.1	13.4	38.6	34.1	> 100	–	–	–	–	–
CCOC(=O)/C=C(/C=C\COC1CCCCO1)c1ccccc1 (configuration not stated)	–	> 100	–	> 100	–	> 100	–	> 100	> 100	88.6	62.7	> 100	> 100	> 100	–	–	–	–	–
Oc1c(OCc2nnc(CCCCCCCCc3nnc(COc4ccc5ccccc5c4O)o3)o2)ccc2ccccc12	–	> 100	–	> 100	–	> 100	–	> 100	> 100	> 100	50.8	> 100	> 100	–	–	–	–	–	–
COC(=O)C1=C(C)NC(C)=C(C(=O)OC)C1c1cccc(N=O)c1	–	32.5	–	> 100	–	29.7	–	40.1	26.2	27.6	30.3	> 100	36.2	–	–	–	–	–	–
COc1cc(OC)cc(Oc2nc3cc(F)c(F)cc3nc2-c2ccccc2)c1	–	> 100	–	–	–	> 100	–	> 100	> 100	> 100	> 100	> 100	> 100	> 100	–	–	–	–	–

SMILES	GI50 (HCT-15 colon) [µM]	TGI (HCT-15 colon) [µM]	GI50 (RPMI-8226 leukemia) [µM]	TGI (RPMI-8226 leukemia) [µM]	GI50 (DU-145 prostate) [µM]	TGI (DU-145 prostate) [µM]	GI50 (MCF7 breast) [µM]	TGI (MCF7 breast) [µM]	TGI (MDA-N) [µM]	TGI (UACC-62 melanoma) [µM]	TGI (786-0 renal) [µM]	TGI (A549 NSCLC) [µM]	TGI (NCI-H23 lung) [µM]	TGI (HS 578T breast) [µM]	GI50 (MDA-N) [µM]	GI50 (NCI-H23 lung) [µM]	GI50 (HS 578T breast) [µM]	GI50 (UACC-62 melanoma) [µM]	GI50 (A549 NSCLC) [µM]
O=C1CC(c2ccccc2Cl)C2(C(=O)NC(=O)NC2=O)C(c2ccccc2Cl)C1 (configuration not stated)	–	> 100	–	> 100	–	> 100	–	> 100	> 100	> 100	> 100	> 100	> 100	> 100	–	–	–	–	–
CN(C)CCNc1c([N+](=O)[O-])sc2ccc(Cl)cc12	–	> 100	–	> 100	–	> 100	–	> 100	–	62.7	49.1	> 100	> 100	> 100	–	–	–	–	–
Cc1cc(OCc2nnc3sc(NC(=O)c4ccccc4)nn23)ccc1Cl	–	> 100	–	69.2	–	58.4	–	> 100	–	> 100	> 100	> 100	82.2	95.6	–	–	–	–	–
O=c1ccn(-c2ccccn2)c(=O)n1-c1ccccn1	–	> 100	–	> 100	–	> 100	–	> 100	> 100	–	> 100	> 100	> 100	> 100	–	–	–	–	–
Cc1cccc(NS(=O)(=O)c2ccc(N=Nc3c(O)c(C(=O)O)cc4ccccc34)cc2)n1	–	> 100	–	> 100	–	–	–	> 100	–	> 100	> 100	> 100	> 100	> 100	–	–	–	–	–
O=C1CS/C(=N/N=C/c2cn(Cc3ccc(Cl)cc3Cl)c3ccccc23)N1	–	> 100	–	> 100	–	> 100	–	61.6	–	> 100	53.2	> 100	> 100	83.6	–	–	–	–	–
CCOC(=O)Cn1nnc2cc(Nc3c(C)[n+]([O-])c4cc(F)c(OCC)cc4[n+]3[O-])ccc21	–	> 100	–	> 100	–	> 100	–	> 100	–	–	> 100	–	> 100	> 100	–	–	–	–	–
CCOc1ccc(NCC2CC/C(=C\C=C\c3ccccc3)C2=O)cc1 (configuration not stated)	–	18.9	–	> 100	–	> 93.3	–	12.3	–	54.2	13.5	> 100	39.3	65.2	–	–	–	–	–
O=C1/C(=C/c2ccc(Cl)cc2)CCCc2ccc(F)cc21	22.1	> 100	4.36	28.7	–	–	8.35	> 100	–	47	–	> 100	> 100	62	–	36.7	29.2	16.1	26.4
S=c1[nH]nc(Cn2c3ccc(Br)cc3c3nc4ccccc4nc32)n1C1CCCCC1	–	> 100	–	59.4	–	> 100	–	> 100	> 93.7	41.1	54.8	> 64.1	42.1	–	–	–	–	–	–
N#Cc1nc(C2CCC(=O)O2)oc1N (configuration not stated)	–	> 100	–	> 100	–	> 100	–	> 100	> 100	> 100	> 100	–	> 100	> 100	–	–	–	–	–
CC(C)=CCC12Cc3ccc(O)cc3C(C(C)CN1)C2C (configuration not stated)	–	> 100	–	> 100	–	> 100	–	> 100	–	> 100	> 100	> 100	> 100	> 100	–	–	–	–	–
CC(C)(C)c1cc(/C=C2/NC(=O)NC2=O)cc(C(C)(C)C)c1O	–	28.2	–	31.9	–	30.3	–	29.9	–	30.5	33.3	–	30.6	36	–	–	–	–	–
C[N+]1(CCN=C=NC2CCCCC2)CCOCC1	–	> 100	–	> 100	–	> 100	–	> 100	–	> 100	> 100	> 100	> 100	> 100	–	–	–	–	–
COc1ccc(OC)c(NC(=O)C(=O)C(C(=O)c2ccccc2F)C2OC(=O)c3ccccc32)c1 (configuration not stated)	–	> 100	–	> 100	–	–	–	–	–	> 100	–	> 100	> 100	–	–	–	–	–	–
O=c1[nH]c(=O)n(C2CC(O)C(CO)O2)cc1OC/C=C/Cc1ccccc1 (configuration not stated)	–	> 100	–	> 100	–	> 100	–	> 100	–	> 100	> 100	> 100	> 100	> 100	–	–	–	–	–
Cc1cnc2[nH]c(-c3cccc(F)c3)cc(=O)c2c1	–	2.59	–	> 43	–	1.3	–	–	0.027	> 100	> 83.6	> 100	2.03	0.0448	–	–	–	–	–
c1c(N2CCOCC2)ssc1=[N+]1CCOCC1	–	> 100	–	> 100	–	–	–	–	–	> 100	> 100	> 100	> 100	–	–	–	–	–	–
COc1cccc(N2C(=O)CS(=O)(=O)C2c2cccc(Oc3ccccc3)c2)c1 (configuration not stated)	–	> 100	–	–	–	> 100	–	10.6	6.45	24.7	44.4	> 100	> 100	70	–	–	–	–	–
Nc1nncc2[nH]cnc12	–	> 100	–	> 56	–	> 100	–	> 31.6	> 100	> 100	> 100	> 100	–	> 100	–	–	–	–	–
CC(=O)OC1CC2(O)C(CCC3(C)C(c4ccc(=O)oc4)CCC32O)C2(C)C1=CC(O)C1OC12 (configuration not stated)	–	0.32	–	0.4	–	–	–	0.402	–	0.117	–	0.0569	0.0618	–	–	–	–	–	–
CCCCCCCCCCCCOCCOCCOCCOCCOCCOCC(=O)NC(Cc1ccccc1)C(=O)Oc1ccc([N+](=O)[O-])cc1 (configuration not stated)	–	> 100	–	> 100	–	–	–	> 100	> 100	56.4	> 100	> 100	> 100	> 100	–	–	–	–	–
